In patent publication US10780083B1, “Charged ion channel blockers and methods for use” (Nocion Therapeutics, Inc., priority 2019, dated 2020):

test: PAMPA membrane permeability assay; assay type: in vitro ADME; details: pH 7.4 buffer, incubated for 4 hours, passive diffusion
Protocol: The PAMPA assay (pION, Inc., Woburn Mass.) was used to determine the ability of compounds of the invention to cross an artificial lipid membrane by passive diffusion. Test compounds were dissolved in DMSO (10 mM) and diluted 200-fold in buffer (pION Inc., pH 7.4) to provide 50 uM stock solutions. Buffer (150 μL) was added to a UV blank plate and stock solutions (150 μL) were transferred to a UV reference plate. The blank and reference spectrum were read using a spectrophotometer. Stock solutions (200 μL) were added to the donor plate of the PAMPA sandwich plate and an accept plate painted with GIT lipid (pION Inc, 5 μL) was placed on top. Buffer (200 μL) was added to the acceptor plate and the PAMPA sandwich plate was incubated for 4 hours. Aliquots (150 μL) from the acceptor plate were added to a UV plate and read as acceptor spectrum. Aliquots (150 μL) of the donor solutions were added to a UV analysis plate and read as donor spectrum. The permeability coefficient of test compounds was calculated using PAMPA Explorer™ software (version 3.5.0.4) based on the AUC of the reference plate, the donor plate, and the acceptor plate.

| SMILES | Papp at 4 h, 50 uM [×10⁻⁶ cm/s] |
| --- | --- |
| Cc1cccc(C)c1NC(=O)C[N+]1(Cc2ccccc2)CCCC1.[Br-] [2A′, 1-benzyl-1-(2-((2,6-dimethylphenyl)amino)-2-oxoethyl) pyrrolidin-1-ium bromide] | < 1 |
| CCC(C(=O)Nc1c(C)cccc1C)[N+]1(Cc2ccccc2)CCCCC1.[Br-] (centres unmarked) [3A′, 1-benzyl-1-(1-((2,6-dimethylphenyl)amino)-1-oxobutan-2-yl)piperidin-1-ium bromide] | < 1 |
| Cc1cccc(C)c1NC(=O)C[N+]1(Cc2ccccc2)CCCCCC1.[Br-] [4A′, 1-benzyl-1-(2-((2,6-dimethylphenyl)amino)-2-oxoethyl) azepan-1-ium bromide] | < 1 |
| CCC(C(=O)Nc1c(C)cccc1C)[N+]1(Cc2ccccc2)CCCCCC1.[Br-] (centres unmarked) [5A′, 1-benzyl-1-(1-((2,6-dimethylphenyl)amino)-1-oxobutan-2-yl) azepan-1-ium bromide] | < 1 |
| Cc1cccc(C)c1NC(=O)C[N+]1(Cc2ccccc2)CCCCCCC1.[Br-] [6A′, 1-benzyl-1-(2-((2,6-dimethylphenyl)amino)-2-oxoethyl) azocan-1-ium bromide] | < 1 |
